Data from ChEMBL document CHEMBL1201862, “PubChem BioAssay data set” (2004).
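Method: 48-hour compound exposure of cells in 96-well plates, five concentrations, linear interpolation of endpoints. GI50 is the concentration that inhibits growth by half.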 Activity calls are given as the source filed them. Cut-off read from the data, not from the text of the source: active = GI50 up to about 1.1 µM and inactive = higher.

Tests used:
Experiment in all cases: NCI-60 cell line screen, 48 h
SK-MEL-2 = system: SK-MEL-2
SK-MEL-5 = system: SK-MEL-5
OVCAR-5 = system: OVCAR-5
NCI-H226 = system: NCI-H226
M14 = system: M14
HCC 2998 = system: HCC 2998
SF-539 = system: SF-539
SR = system: SR
OVCAR-8 = system: OVCAR-8
RXF 393 = system: RXF 393
A549 = system: A549
MOLT-4 = system: MOLT-4
OVCAR-4 = system: OVCAR-4
ACHN = system: ACHN
LOX IMVI = system: LOX IMVI
MCF7 = system: MCF7
HT-29 = system: HT-29
DU-145 = system: DU-145
SNB-19 = system: SNB-19
HL-60 = system: HL-60

Compound	GI50 (SK-MEL-2)	GI50 (SK-MEL-5)	GI50 (OVCAR-5)	GI50 (NCI-H226)	GI50 (M14)	GI50 (HCC 2998)	GI50 (SF-539)	GI50 (SR)	GI50 (OVCAR-8)	GI50 (RXF 393)	GI50 (A549)	GI50 (MOLT-4)	GI50 (OVCAR-4)	GI50 (ACHN)	GI50 (LOX IMVI)	GI50 (MCF7)	GI50 (HT-29)	GI50 (DU-145)	GI50 (SNB-19)	GI50 (HL-60)
O=C(Nc1ccc2oc(=O)c(C(=O)O)cc2c1)Oc1ccccc1	> 100 µM (inactive)	> 100 µM (inactive)	> 100 µM (inactive)	> 100 µM (inactive)	> 100 µM (inactive)	59.6 µM (inactive)	> 100 µM (inactive)	> 100 µM (inactive)	> 100 µM (inactive)	> 100 µM (inactive)	> 100 µM (inactive)	> 100 µM (inactive)	> 100 µM (inactive)	> 100 µM (inactive)	> 100 µM (inactive)	> 100 µM (inactive)	> 100 µM (inactive)	> 100 µM (inactive)	> 100 µM (inactive)	
Nc1nnc2oc3ccc4ccccc4c3cc1-2	27.7 µM (inactive)	27.3 µM (inactive)	57.1 µM (inactive)	21.5 µM (inactive)	37.4 µM (inactive)	20.3 µM (inactive)		23.1 µM (inactive)	32.4 µM (inactive)	28 µM (inactive)	47.3 µM (inactive)	27.7 µM (inactive)	30.8 µM (inactive)	20 µM (inactive)	23.5 µM (inactive)	28 µM (inactive)	38.2 µM (inactive)	56.5 µM (inactive)	51.8 µM (inactive)	21.9 µM (inactive)
CCOC(=O)c1ccc(Nc2nc3ccc(C(F)(F)F)cc3nc2C(=O)OCC)cc1		> 100 µM (inactive)	> 100 µM (inactive)	> 100 µM (inactive)	> 100 µM (inactive)	> 100 µM (inactive)	> 100 µM (inactive)	> 100 µM (inactive)	> 100 µM (inactive)	> 100 µM (inactive)	> 100 µM (inactive)	> 100 µM (inactive)		> 100 µM (inactive)	> 100 µM (inactive)	> 100 µM (inactive)	> 100 µM (inactive)	> 100 µM (inactive)	> 100 µM (inactive)	> 100 µM (inactive)
Cc1nc2c(C)c3c([nH]c4ccc(Cl)cc43)c(C)c2c(O)c1C	65.2 µM (inactive)	11.8 µM (inactive)	6.76 µM (inactive)	4.82 µM (inactive)	10.9 µM (inactive)	6.46 µM (inactive)	6.21 µM (inactive)	2.19 µM (inactive)	4.88 µM (inactive)		2.82 µM (inactive)	1.63 µM (inactive)	7.24 µM (inactive)	2.75 µM (inactive)	4.06 µM (inactive)	2.2 µM (inactive)	4.37 µM (inactive)	5.71 µM (inactive)	15.7 µM (inactive)	2.24 µM (inactive)
CN(C)c1ccc(/C=C2\C[C@H]3[C@@H]4CC=C5C[C@@H](O)CC[C@]5(C)[C@H]4CC[C@]3(C)C2=O)cc1	19.7 µM (inactive)	50.7 µM (inactive)	17.9 µM (inactive)	20 µM (inactive)	16.6 µM (inactive)		9.2 µM (inactive)	29.1 µM (inactive)	4.88 µM (inactive)	19.7 µM (inactive)	19.9 µM (inactive)	79.3 µM (inactive)	18.1 µM (inactive)	16.2 µM (inactive)	13.2 µM (inactive)	30.5 µM (inactive)	16.3 µM (inactive)	44 µM (inactive)	17.1 µM (inactive)	> 100 µM (inactive)
O=NC1C(Cl)C2CC1C1C(Br)C(Br)CC21 (stereo not drawn)	> 100 µM (inactive)	> 100 µM (inactive)	> 100 µM (inactive)	> 100 µM (inactive)	> 100 µM (inactive)		> 100 µM (inactive)	48.9 µM (inactive)	> 100 µM (inactive)	> 100 µM (inactive)	> 100 µM (inactive)	> 100 µM (inactive)	> 100 µM (inactive)	> 100 µM (inactive)	> 100 µM (inactive)	> 100 µM (inactive)	> 100 µM (inactive)	> 100 µM (inactive)	> 100 µM (inactive)	> 100 µM (inactive)
CC1CCC2CC1NC(=O)CCOCCC(=O)NC2(C)C (stereo not drawn)		> 100 µM (inactive)	> 100 µM (inactive)		> 100 µM (inactive)	> 100 µM (inactive)	> 100 µM (inactive)	> 100 µM (inactive)	> 100 µM (inactive)		> 100 µM (inactive)	> 100 µM (inactive)	> 100 µM (inactive)		> 100 µM (inactive)	> 100 µM (inactive)	> 100 µM (inactive)	> 100 µM (inactive)	> 100 µM (inactive)	> 100 µM (inactive)
CCOC(=O)c1cc2cc(CSc3ccccc3)ccc2oc1=O	92.5 µM (inactive)	> 100 µM (inactive)	> 100 µM (inactive)	> 100 µM (inactive)	51.5 µM (inactive)	42.6 µM (inactive)	91.8 µM (inactive)	> 100 µM (inactive)	> 100 µM (inactive)	39.4 µM (inactive)	83.4 µM (inactive)	> 100 µM (inactive)	> 100 µM (inactive)	> 100 µM (inactive)	> 100 µM (inactive)	90.2 µM (inactive)	> 100 µM (inactive)	89.1 µM (inactive)	46.8 µM (inactive)	
CC1=NN(c2ccc(S(=O)(=O)O)cc2)C(=O)/C1=C/c1ccc(Cl)cc1.c1ccncc1	> 100 µM (inactive)	> 100 µM (inactive)	> 100 µM (inactive)	> 100 µM (inactive)	> 100 µM (inactive)		> 100 µM (inactive)	> 100 µM (inactive)	> 100 µM (inactive)	> 100 µM (inactive)	> 100 µM (inactive)	> 100 µM (inactive)	> 100 µM (inactive)	> 100 µM (inactive)	> 100 µM (inactive)	> 100 µM (inactive)	> 100 µM (inactive)	> 100 µM (inactive)	> 100 µM (inactive)	> 100 µM (inactive)
CC(=O)O[C@@H]1[C@H](OC2CCCCC2(c2ccccc2)c2ccccc2)O[N+]([O-])=CC12CCCCC2 (stereo partly drawn)		15 µM (inactive)	15.8 µM (inactive)	14.1 µM (inactive)	18.7 µM (inactive)	17.1 µM (inactive)	20 µM (inactive)	32 µM (inactive)	25.5 µM (inactive)	17.8 µM (inactive)	17.7 µM (inactive)	52 µM (inactive)		17.6 µM (inactive)	22 µM (inactive)	18.2 µM (inactive)	18.6 µM (inactive)	18.1 µM (inactive)		< 0.01 µM (active)
CC(=O)OCC(OC(C)=O)C(OC(C)=O)C(OC(C)=O)C(/C=N\Nc1nc2ccccc2c(=O)[nH]1)OC(C)=O (stereo not drawn)	> 100 µM (inactive)	> 100 µM (inactive)	> 100 µM (inactive)	> 100 µM (inactive)	> 100 µM (inactive)	> 100 µM (inactive)	> 100 µM (inactive)	> 100 µM (inactive)	> 100 µM (inactive)	> 100 µM (inactive)	> 100 µM (inactive)	> 100 µM (inactive)		> 100 µM (inactive)	> 100 µM (inactive)	> 100 µM (inactive)	> 100 µM (inactive)	> 100 µM (inactive)	> 100 µM (inactive)	> 100 µM (inactive)
C=CCOC(=O)Cn1cnc2c(N)ncnc21	> 100 µM (inactive)	> 100 µM (inactive)		> 100 µM (inactive)	> 100 µM (inactive)	> 100 µM (inactive)	> 100 µM (inactive)	> 100 µM (inactive)	> 100 µM (inactive)		> 100 µM (inactive)	> 100 µM (inactive)	> 100 µM (inactive)	> 100 µM (inactive)	> 100 µM (inactive)	> 100 µM (inactive)	> 100 µM (inactive)	> 100 µM (inactive)	> 100 µM (inactive)	> 100 µM (inactive)
CCOC(=O)C1=C(C)NC(c2ccccc2)=C(C(=O)OCc2ccccc2)C1C#Cc1ccccc1 (stereo not drawn)	> 100 µM (inactive)	> 100 µM (inactive)	> 100 µM (inactive)	> 100 µM (inactive)	> 100 µM (inactive)		> 100 µM (inactive)	> 100 µM (inactive)	> 100 µM (inactive)	> 100 µM (inactive)		> 100 µM (inactive)			> 100 µM (inactive)	> 100 µM (inactive)		> 100 µM (inactive)	> 100 µM (inactive)	> 100 µM (inactive)
O=C(NCc1cccs1)OC1CC2CCC1C2 (stereo not drawn)	> 100 µM (inactive)	> 100 µM (inactive)	> 100 µM (inactive)	> 100 µM (inactive)	> 100 µM (inactive)		> 100 µM (inactive)	> 100 µM (inactive)	> 100 µM (inactive)	> 100 µM (inactive)	> 100 µM (inactive)	> 100 µM (inactive)	> 100 µM (inactive)	> 100 µM (inactive)	> 100 µM (inactive)	> 100 µM (inactive)	> 100 µM (inactive)	> 100 µM (inactive)	> 100 µM (inactive)	> 100 µM (inactive)
O=[N+]([O-])c1nccn1CCCNc1c2ccccc2[n+]([O-])c2ccccc12	88.5 µM (inactive)	> 100 µM (inactive)	> 100 µM (inactive)	38.6 µM (inactive)	> 100 µM (inactive)		> 100 µM (inactive)	> 100 µM (inactive)	> 100 µM (inactive)	> 100 µM (inactive)	> 100 µM (inactive)	> 100 µM (inactive)	50.2 µM (inactive)	> 100 µM (inactive)	> 100 µM (inactive)	> 100 µM (inactive)	43.6 µM (inactive)	> 100 µM (inactive)		> 100 µM (inactive)
